Assay results published in the NIST ThermoML archive (doi:10.1016/j.jct.2017.01.011).
Numbers after ± are expanded uncertainties.

Columns and labels:
[1] = xn = mol fraction of the nth substance listed; settings: 100 kPa, Liquid, x1 = 1; for speed of sound: Frequency=3 MHz, Single path-length method; for mass density: Vibrating tube method
[2] = 100 kPa, Liquid; for speed of sound: Frequency=3 MHz, Single path-length method; for mass density: Vibrating tube method

| speed of sound ([1]; 283.15 K) [m/s] | mass density ([1]; 283.15 K) [kg/m3] | speed of sound ([1]; 293.15 K) [m/s] | mass density ([1]; 293.15 K) [kg/m3] | speed of sound ([1]; 303.15 K) [m/s] | mass density ([1]; 303.15 K) [kg/m3] | speed of sound ([1]; 313.15 K) [m/s] | mass density ([1]; 313.15 K) [kg/m3] | speed of sound ([2]; 283.15 K) [m/s] | mass density ([2]; 283.15 K) [kg/m3] | speed of sound ([2]; 293.15 K) [m/s] | mass density ([2]; 293.15 K) [kg/m3] | speed of sound ([2]; 303.15 K) [m/s] | mass density ([2]; 303.15 K) [kg/m3] | speed of sound ([2]; 313.15 K) [m/s] | mass density ([2]; 313.15 K) [kg/m3] | Compound |
| --- | --- | --- | --- | --- | --- | --- | --- | --- | --- | --- | --- | --- | --- | --- | --- | --- |
| 1153.3 ± 4.1 | 801 ± 1 | 1119.6 ± 4.1 | 791 ± 1 | 1086.6 ± 4.1 | 782 ± 1 | 1054.2 ± 4.1 | 772 ± 1 |  |  |  |  |  |  |  |  | CO [methanol] + OCC(O)CO |
| 1196.8 ± 4.1 | 798 ± 1 | 1162.3 ± 4.1 | 790 ± 1 | 1128.2 ± 4.1 | 781 ± 1 | 1094.5 ± 4.1 | 772 ± 1 |  |  |  |  |  |  |  |  | CCO [ethanol] + OCC(O)CO |
|  |  |  |  |  |  |  |  | 1942.3 ± 6.1 | 1267 ± 1 | 1922.9 ± 6.1 | 1261 ± 1 | 1901 ± 6.1 | 1255 ± 1 | 1879.3 ± 6.1 | 1248 ± 1 | OCC(O)CO [glycerol] |
